Results taken from patent publication US10975412B2, “Method for designing compounds and compositions useful for targeting high stoichiometric complexes to treat conditions, including treatment of viruses, bacteria, and cancers having acquired drug resistance” (priority 2015, dated 2021).
Read-outs that look alike come from different tables or passages of the source.

Biological target: T1, phi29 DNA packaging motor (Bacillus phage phi29, UniProt P11014)
T1 construct: made in house
Type: biochemical, bacteriophage phi29
Settings: for inhibition effect in viral assembly: adding 20% of the drugged/mutant component to the wild-type component
Method: (§1) Purified components were subjected to in vitro viral assembly assay as described previously. Briefly, 10 μg of purified procapsids were mixed with 100 ng of pRNA in 5 μl of reaction buffer (10 mM ATP, 6 mM 2-mercaptoethanol, and 3 mM spermidine in TMS buffer) at room temperature for 30 min. Purified DNA-gp3 and gp16 were then added and the reaction mixture was incubated at room temperature for one hour to initiate DNA packaging. Finally, the DNA filled procapsids were incubated with 10 μl of gp8.5-9 extract from E. coli containing plasmid pARgp8.5-9 and 20 μl of gp11-14 extract from E. coli to complete the infectious phage assembly.
The newly assembled infectious viruses were plated with inoculated B. subtilis bacteria Su^+44 cells onto a half LB plate covered with top agar. After 12 hour incubation at 37° C., the viral assembly efficiency (plaque-forming unit, PFU) was calculated by counting the formed plaque numbers.
as §1

T1 sequence (P11014 whole entry): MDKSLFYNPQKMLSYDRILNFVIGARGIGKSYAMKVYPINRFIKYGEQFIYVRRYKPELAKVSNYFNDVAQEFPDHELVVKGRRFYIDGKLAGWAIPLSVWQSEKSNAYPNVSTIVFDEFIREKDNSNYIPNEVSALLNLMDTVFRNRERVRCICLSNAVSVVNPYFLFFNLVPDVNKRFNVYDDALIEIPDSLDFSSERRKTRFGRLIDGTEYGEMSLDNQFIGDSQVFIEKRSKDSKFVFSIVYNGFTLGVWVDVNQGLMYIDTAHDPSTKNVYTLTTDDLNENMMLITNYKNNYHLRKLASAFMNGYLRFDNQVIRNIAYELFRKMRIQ

Nc1ncnc2c1ncn2[C@@H]1O[C@H](COP(=O)(O)OP(=O)(O)OP(O)(O)=S)[C@@H](O)[C@H]1O [γ-S-ATP]
inhibition effect in viral assembly: almost completely inhibited
inhibition effect in viral assembly (listed as gamma-s-ATP): nearly completely inhibited
comparison of virus assembly inhibition effect between drugged components (targets ATP, pRNA, ATPase gp16, DNA with stoichiometry 10000, 6, 6, 1): strongest inhibition effect
